# In PubChem BioAssay (NCI):
#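 The concentration for 50% growth inhibition is given as GI50. At the TGI there is no net growth.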
# What was measured:
# Experiment in all cases: NCI anticancer screen, dose series, 384-well format
# [1] = system: SN12C renal
# [2] = system: NCI-H226 lung
# [3] = system: NCI-H460 NSCLC
# [4] = system: K-562 leukemia
# [5] = system: HT29 colon
# [6] = system: CAKI-1 renal
# [7] = system: OVCAR-5 ovarian
# [8] = system: HOP-62 NSCLC
# [9] = system: HS 578T breast
# [10] = system: BT-549 breast
# [11] = system: SNB-19 CNS
# [12] = system: MCF7 breast
# [13] = system: OVCAR-4 ovarian
# [14] = system: IGROV1 ovarian
# [15] = system: ACHN renal
# [16] = system: HOP-92 NSCLC
# [17] = system: A498 renal
# [18] = system: SF-295 CNS
# [19] = system: CCRF-CEM leukemia
# [20] = system: SF-268 CNS
# [21] = system: MDA-MB-231 breast
# [22] = system: OVCAR-3 ovarian
# [23] = system: T-47D breast
# [24] = system: UACC-62 melanoma
# [25] = system: MDA-MB-468 breast
# [26] = system: SK-MEL-5 melanoma
# [27] = system: DU-145 prostate
# [28] = system: A549 NSCLC
# [29] = system: HL-60(TB) leukemia
# [30] = system: LOX IMVI melanoma
# [31] = system: SF-539 CNS
# [32] = system: UO-31 renal
# [33] = system: M14 melanoma
# [34] = system: RXF 393 renal
# [35] = system: NCI-H522 lung
# [36] = system: SR leukemia
# [37] = system: OVCAR-8 ovarian
# [38] = system: HCC-2998 colon
# [39] = system: SW-620 colon
# [40] = system: PC-3 prostate
# [41] = system: 786-0 renal
# [42] = system: KM12 colon
# [43] = system: RPMI-8226 leukemia
# [44] = system: EKVX NSCLC
# [45] = system: NCI-H23 lung
# [46] = system: TK-10 renal
# [47] = system: MDA-MB-435 melanoma
# [48] = system: MALME-3M melanoma
# [49] = system: HCT-15 colon
# [50] = system: SNB-75 CNS
# [51] = system: NCI-H322M lung
# [52] = system: U251 glioblastoma
# [53] = system: NCI/ADR-RES ovarian
# [54] = system: MOLT-4 leukemia
# [55] = system: COLO 205 colon
# [56] = system: SK-OV-3 ovarian
# [57] = system: UACC-257 melanoma
# [58] = system: SK-MEL-28 melanoma
# [59] = system: HCT-116 colon
compound,measurement,setting,value
Cc1c(CN2CCN(C(=O)[C@H](C)O)CC2)sc2c(N3CCOCC3)nc(-c3cnc(N)nc3)nc12,GI50,[1],148 nM
same,TGI,[1],694 nM
same,GI50,[2],158 nM
same,TGI,[2],784 nM
same,GI50,[3],78.6 nM
same,TGI,[3],> 100000 nM
same,GI50,[4],943 nM
same,TGI,[4],> 100000 nM
same,GI50,[5],246 nM
same,TGI,[5],> 100000 nM
same,GI50,[6],197 nM
same,TGI,[6],2820 nM
same,GI50,[7],137 nM
same,TGI,[7],823 nM
same,GI50,[8],292 nM
same,TGI,[8],2920 nM
same,GI50,[9],139 nM
same,TGI,[9],419 nM
same,GI50,[10],197 nM
same,TGI,[10],922 nM
same,GI50,[11],2490 nM
same,TGI,[11],> 100000 nM
same,GI50,[12],48.5 nM
same,TGI,[12],> 100000 nM
same,GI50,[13],128 nM
same,TGI,[13],726 nM
same,GI50,[14],41.6 nM
same,TGI,[14],192 nM
same,GI50,[15],193 nM
same,TGI,[15],1150 nM
same,GI50,[16],84.9 nM
same,TGI,[16],446 nM
same,GI50,[17],88.2 nM
same,TGI,[17],473 nM
same,GI50,[18],148 nM
same,TGI,[18],695 nM
same,GI50,[19],361 nM
same,TGI,[19],1920 nM
same,GI50,[20],386 nM
same,TGI,[20],16600 nM
same,GI50,[21],290 nM
same,TGI,[21],> 100000 nM
same,GI50,[22],211 nM
same,TGI,[22],1740 nM
same,GI50,[23],25.9 nM
same,TGI,[23],110 nM
same,GI50,[24],211 nM
same,TGI,[24],1200 nM
same,GI50,[25],97.6 nM
same,TGI,[25],352 nM
same,GI50,[26],119 nM
same,TGI,[26],386 nM
same,GI50,[27],272 nM
same,TGI,[27],4100 nM
same,GI50,[28],261 nM
same,TGI,[28],2600 nM
same,GI50,[29],121 nM
same,TGI,[29],577 nM
same,GI50,[30],239 nM
same,TGI,[30],1130 nM
same,GI50,[31],300 nM
same,TGI,[31],3070 nM
same,GI50,[32],295 nM
same,TGI,[32],> 100000 nM
same,GI50,[33],228 nM
same,TGI,[33],3710 nM
same,GI50,[34],352 nM
same,TGI,[34],2330 nM
same,GI50,[35],208 nM
same,TGI,[35],974 nM
same,GI50,[36],176 nM
same,TGI,[36],609 nM
same,GI50,[37],333 nM
same,TGI,[37],> 100000 nM
same,GI50,[38],404 nM
same,TGI,[38],14700 nM
same,GI50,[39],594 nM
same,TGI,[39],> 100000 nM
same,GI50,[40],149 nM
same,TGI,[40],2430 nM
same,GI50,[41],350 nM
same,TGI,[41],2860 nM
same,GI50,[42],354 nM
same,TGI,[42],6970 nM
same,GI50,[43],54.4 nM
same,TGI,[43],200 nM
same,GI50,[44],173 nM
same,TGI,[44],1010 nM
same,GI50,[45],179 nM
same,TGI,[45],5800 nM
same,GI50,[46],223 nM
same,TGI,[46],1380 nM
same,GI50,[47],230 nM
same,TGI,[47],1530 nM
same,GI50,[48],51 nM
same,TGI,[48],286 nM
same,GI50,[49],198 nM
same,TGI,[49],> 100000 nM
same,GI50,[50],143 nM
same,TGI,[50],775 nM
same,GI50,[51],244 nM
same,TGI,[51],6600 nM
same,GI50,[52],1060 nM
same,TGI,[52],> 100000 nM
same,GI50,[53],651 nM
same,TGI,[53],> 100000 nM
same,GI50,[54],97.5 nM
same,TGI,[54],282 nM
same,GI50,[55],208 nM
same,TGI,[55],1370 nM
same,GI50,[56],133 nM
same,TGI,[56],448 nM
same,GI50,[57],185 nM
same,TGI,[57],884 nM
same,GI50,[58],154 nM
same,TGI,[58],719 nM
COc1cc2nc(N3CCCN(C)CC3)nc(NC3CCN(Cc4ccccc4)CC3)c2cc1OC,GI50,[1],1720 nM
same,TGI,[1],3220 nM
same,GI50,[2],1590 nM
same,TGI,[2],3180 nM
same,GI50,[3],456 nM
same,TGI,[3],1500 nM
same,GI50,[4],163 nM
same,TGI,[4],366 nM
same,GI50,[5],395 nM
same,TGI,[5],1320 nM
same,GI50,[6],578 nM
same,TGI,[6],1830 nM
same,GI50,[8],1760 nM
same,TGI,[8],3170 nM
same,GI50,[9],1480 nM
same,TGI,[9],2810 nM
same,GI50,[10],1090 nM
same,TGI,[10],2300 nM
same,GI50,[11],1510 nM
same,TGI,[11],3340 nM
same,GI50,[12],694 nM
same,TGI,[12],2020 nM
same,GI50,[13],1010 nM
same,TGI,[13],2190 nM
same,GI50,[14],1850 nM
same,TGI,[14],3830 nM
same,GI50,[15],1650 nM
same,TGI,[15],3040 nM
same,GI50,[16],1380 nM
same,TGI,[16],2720 nM
same,GI50,[17],625 nM
same,TGI,[17],1830 nM
same,GI50,[18],1550 nM
same,TGI,[18],2890 nM
same,GI50,[19],227 nM
same,TGI,[19],622 nM
same,GI50,[20],943 nM
same,TGI,[20],2140 nM
same,GI50,[21],725 nM
same,TGI,[21],2110 nM
same,GI50,[22],540 nM
same,TGI,[22],1710 nM
same,GI50,[23],1780 nM
same,TGI,[23],3200 nM
same,GI50,[24],1280 nM
same,TGI,[24],2570 nM
same,GI50,[25],1200 nM
same,TGI,[25],2450 nM
same,GI50,[26],968 nM
same,TGI,[26],2160 nM
same,GI50,[27],1380 nM
same,TGI,[27],2730 nM
same,GI50,[28],1660 nM
same,TGI,[28],3080 nM
same,GI50,[29],233 nM
same,TGI,[29],541 nM
same,GI50,[30],1540 nM
same,TGI,[30],2890 nM
same,GI50,[31],339 nM
same,TGI,[31],916 nM
same,GI50,[32],1780 nM
same,TGI,[32],3180 nM
same,GI50,[33],600 nM
same,TGI,[33],1850 nM
same,GI50,[34],572 nM
same,TGI,[34],1890 nM
same,GI50,[35],1430 nM
same,TGI,[35],2750 nM
same,GI50,[59],351 nM
same,TGI,[59],1020 nM
same,GI50,[37],1030 nM
same,TGI,[37],2240 nM
same,GI50,[38],867 nM
same,TGI,[38],2130 nM
same,GI50,[39],405 nM
same,TGI,[39],1450 nM
same,GI50,[40],1140 nM
same,TGI,[40],2550 nM
same,GI50,[41],1300 nM
same,TGI,[41],2590 nM
same,GI50,[42],434 nM
same,TGI,[42],1670 nM
same,GI50,[43],449 nM
same,TGI,[43],1540 nM
same,GI50,[44],1650 nM
same,TGI,[44],3620 nM
same,GI50,[45],1560 nM
same,TGI,[45],3160 nM
same,GI50,[46],1180 nM
same,TGI,[46],2500 nM
same,GI50,[47],1570 nM
same,TGI,[47],2930 nM
same,GI50,[48],1150 nM
same,TGI,[48],2370 nM
same,GI50,[49],611 nM
same,TGI,[49],1900 nM
same,GI50,[50],1660 nM
same,TGI,[50],3040 nM
same,GI50,[51],1440 nM
same,TGI,[51],2840 nM
same,GI50,[52],1150 nM
same,TGI,[52],2390 nM
same,GI50,[53],4780 nM
same,TGI,[53],15900 nM
same,GI50,[54],538 nM
same,TGI,[54],1840 nM
same,GI50,[55],1340 nM
same,TGI,[55],2640 nM
same,GI50,[56],1350 nM
same,TGI,[56],2660 nM
same,GI50,[57],178 nM
same,TGI,[57],319 nM
same,GI50,[58],1640 nM
same,TGI,[58],3020 nM
